Measured values from US4755610A, “Hapalindoles” (priority 1986, dated 1988).
Read-outs that look alike come from different tables or passages of the source.

Key:
Format in all cases: cell-based
[1] = system: Staphylococcus aureus X1.1; assay: In vitro antibacterial activity, standard agar-dilution assay
[2] = system: Staphylococcus aureus V41; assay: as above
[3] = system: Staphylococcus aureus X400; assay: microbe, parasite or virus in culture
[4] = system: Staphylococcus aureus S13E; assay: microbe, parasite or virus in culture
[5] = system: Staphylococcus epidermidis EPI1; assay: In vitro antibacterial activity, standard agar-dilution assay
[6] = system: Staphylococcus epidermidis 222; assay: as above
[7] = system: Streptococcus pyogenes C203; assay: as above
[8] = system: Streptococcus pneumoniae Park 1; assay: as above; details: PARK1
[9] = system: Streptococcus faecium ATCC 9790; assay: as above; details: Enterococcus faecium, ATCC9790
[10] = system: Streptococcus sp group D 2041; assay: as above; details: GROUPD2041
[11] = system: Haemophilus influenzae C.L.; assay: as above
[12] = system: Haemophilus influenzae 76; assay: as above
Escherichia coli N10 = assay: as above
Escherichia coli EC14 = assay: as above
Escherichia coli TEM = assay: as above
[13] = system: Klebsiella pneumoniae X26; assay: as above
[14] = system: Klebsiella pneumoniae X68; assay: as above
[15] = system: Klebsiella pneumoniae KAE; assay: as above
Salmonella sp. X514 = assay: as above
Shigella sonnei N9 = assay: as above
Proteus morganii PR15 = assay: as above; details: Morganella morganii
[16] = system: Acinetobacter calcoaceticus AC12; assay: as above
Candida albicans = assay: In vitro antifungal activity, standard disc-plate assay
[17] = system: Trichophyton mentagrophytes; assay: as above
[18] = Staphylococcus aureus X1.1, agar dilution, read-out: MIC
[19] = Staphylococcus aureus V41, agar dilution, read-out: MIC
[20] = Staphylococcus epidermidis EPI1, agar dilution, read-out: MIC
[21] = Staphylococcus epidermidis 222, agar dilution, read-out: MIC
[22] = Streptococcus pyogenes C203, agar dilution, read-out: MIC
[23] = Streptococcus pneumoniae Park 1, agar dilution, read-out: MIC
[24] = Streptococcus faecium ATCC 9790, agar dilution, read-out: MIC
[25] = Streptococcus sp group D 2041, agar dilution, read-out: MIC
[26] = Haemophilus influenzae C.L., agar dilution, read-out: MIC
[27] = Haemophilus influenzae 76, agar dilution, read-out: MIC
[28] = Escherichia coli N10, agar dilution, read-out: MIC
[29] = Escherichia coli EC14, agar dilution, read-out: MIC
[30] = Klebsiella pneumoniae X26, agar dilution, read-out: MIC
[31] = Klebsiella pneumoniae X68, agar dilution, read-out: MIC
[32] = Klebsiella pneumoniae KAE, agar dilution, read-out: MIC
[33] = Salmonella sp. X514, agar dilution, read-out: MIC
[34] = Shigella sonnei N9, agar dilution, read-out: MIC
[35] = Proteus morganii PR15, agar dilution, read-out: MIC
[36] = Acinetobacter calcoaceticus AC12, agar dilution, read-out: MIC
[37] = disc-plate assay, read-out: MIC

Measured: MIC

C=C[C@@]1(C)[C@H](Cl)C[C@H](C(=C)C)[C@@H](c2c[nH]c3ccccc23)[C@H]1N=C=S [Compound 6, Hapalindole F]
4 µg/mL: [5]; [20] | [6]; [21]
> 20 µg/mL: Candida albicans; [37] | [17]; [37]
16 µg/mL: [1]; [18] | [10]; [25]
> 64 µg/mL: [2]; [19] | [7]; [22] | [8]; [23] | [11]; [26] | [12]; [27] | Escherichia coli N10; [28] | Escherichia coli EC14; [29] | Escherichia coli TEM | [13]; [30] | [14]; [31] | [15]; [32] | Salmonella sp. X514; [33] | Shigella sonnei N9; [34] | Proteus morganii PR15; [35] | [16]; [36]
64 µg/mL: [9]; [24]
32 µg/mL: [3] | [4]

[C-]#[N+][C@@H]1[C@H](c2c[nH]c3ccccc23)[C@@H](C(=C)C)C[C@@H](Cl)[C@]1(C)C=C [Compound 5, Hapalindole E]
32 µg/mL: Proteus morganii PR15; PR15
4 µg/mL: [1]; Staphylococcus aureus, X1.1 | [3] | [11]; Haemophilus influenzae | [12]; Haemophilus influenzae, 76
16 µg/mL: Escherichia coli N10; Escherichia coli, N10 | Escherichia coli EC14; Escherichia coli, EC14
64 µg/mL: [9]
0.625 µg/mL: [17]
> 64 µg/mL: [7]; Streptococcus pyogenes, C203 | [8]; Streptococcus pneumoniae | [10]; Streptococcus | Escherichia coli TEM | [13]; Klebsiella pneumoniae, X26 | [14]; Klebsiella pneumoniae, X68 | [15]; Klebsiella pneumoniae | Salmonella sp. X514; Salmonella, SP.X514 | Shigella sonnei N9; Shigella sonnei, N9 | [16]; Acinetobacter calcoaceticus, AC12
2 µg/mL: [2]; Staphylococcus aureus, V41 | [4] | [5]; Staphylococcus epidermidis, EPI1 | [6]; Staphylococcus epidermidis, 222
0.312 µg/mL: Candida albicans

C=C[C@@]1(C)CC[C@H](C(=C)C)[C@@H](c2c[nH]c3ccccc23)[C@H]1N=C=S [Compound 4, Hapalindole D]
4 µg/mL: [1]; [18] | [2]; [19] | [4] | [6]; [21]
> 20 µg/mL: Candida albicans; [37] | [17]; [37]
8 µg/mL: [3] | [5]; [20] | [9]; [24] | [10]; [25]
> 64 µg/mL: [7]; [22] | [8]; [23] | [11]; [26] | [12]; [27] | Escherichia coli N10; [28] | Escherichia coli EC14; [29] | Escherichia coli TEM | [13]; [30] | [14]; [31] | [15]; [32] | Salmonella sp. X514; [33] | Shigella sonnei N9; [34] | Proteus morganii PR15; [35] | [16]; [36]

[C-]#[N+][C@@H]1[C@@H]2c3c[nH]c4cccc(c34)C(C)(C)[C@H]2C[C@@H](Cl)[C@]1(C)C=C [Compound 7, Hapalindole G]
2.5 µg/mL: [17]; [37]
64 µg/mL: [1]; [18] | [2]; [19] | [3] | [4] | [11]; [26] | [12]; [27] | [13]; [30]
8 µg/mL: [5]; [20]
> 64 µg/mL: [9]; [24] | [10]; [25] | Escherichia coli N10; [28] | Escherichia coli EC14; [29] | Escherichia coli TEM | [14]; [31] | [15]; [32] | Salmonella sp. X514; [33] | Shigella sonnei N9; [34] | Proteus morganii PR15; [35]
10 µg/mL: Candida albicans; [37]
16 µg/mL: [6]; [21] | [7]; [22] | [8]; [23] | [16]; [36]
